From patent publication US6346603B1, “Crystal of depsipeptide derivative and process for producing the same” (Fujisawa Pharmaceutical Co., Ltd., priority 1997, dated 2002)

Experiments:
Format in all cases: physicochemical
[1] = Filtration properties during crystallization, observed with the naked eye; parameters: key: ⊚: very great filtration properties; ◯: good filtration properties; Δ: poor filtration properties; X: very poor filtration properties; conditions: observation with the naked eye
Protocol: (§1) The crystals (I), (II) and (III) of the depsipeptide derivative (IV), thus recovered in the aforementioned manners, were examined about the filtration properties during crystallization, the specific volume and water content, by using the prior art crystal (V) for comparison.
The filtration properties during crystallization were evaluated on the following standards under observation with the naked eye.
⊚: very great filtration properties
◯: good filtration properties
Δ: poor filtration properties
X: very poor filtration properties

[2] = Water content after standing at ambient temperature to constant weight; conditions: left to stand at ambient temperature until weight reached constant value
Protocol: as §1
As to the water content, additionally, each crystal was left to stand at ambient temperature until its weight reached constant value, wherein an amount of water containing in the crystal was measured in %.

[3] = Fluidity (adhesion properties) of the crystal; conditions: not shown in Table 6; adhesion to machines during production

## CC(C)CC1C(=O)OC(Cc2ccc(N3CCOCC3)cc2)C(=O)N(C)C(CC(C)C)C(=O)OC(C)C(=O)CCCCN1C (stereo not shown) [Crystal (I)]
[1]
  Filtration property during crystallization: ×
[2]
  Water content: 3.16%

## CC(C)CC1C(=O)OC(Cc2ccc(N3CCOCC3)cc2)C(=O)N(C)C(CC(C)C)C(=O)OC(C)C(=O)CCCCN1C (stereo not shown) [Crystal (II)]
[1]
  Filtration property during crystallization: ⊚
[2]
  Water content: 0.98%
[3]
  Fluidity (adhesion properties): great fluidity

## CC(C)CC1C(=O)OC(Cc2ccc(N3CCOCC3)cc2)C(=O)N(C)C(CC(C)C)C(=O)OC(C)C(=O)CCCCN1C (stereo not shown) [Crystal (III)]
[1]
  Filtration property during crystallization: ◯
[2]
  Water content: 0.20%

## CC(C)CC1C(=O)OC(Cc2ccc(N3CCOCC3)cc2)C(=O)N(C)C(CC(C)C)C(=O)OC(C)C(=O)CCCCN1C (stereo not shown) [Prior art Crystal (V), reference compound]
[1]
  Filtration property during crystallization: ×
[2]
  Water content: 2.45%
[3]
  Fluidity (adhesion properties): poor fluidity
